# Assay results: ChEMBL document CHEMBL4257449, “New N-(2-phenyl-4-oxo-1,3-thiazolidin-3-yl)-1,2-benzothiazole-3-carboxamides and acetamides as antimicrobial agents” (2017)
# Columns and labels:
# Talaromyces funiculosus [1] = assay: Antifungal activity against Penicillium funiculosum ATCC 36839 after 72 hrs by serial dilution method; format: functional; conditions: ATCC 36839, 72 h
# Aspergillus niger [2] = assay: Fungicidal activity against Aspergillus niger ATCC 6275 incubated for 72 hrs followed by serial sub-cultivation for 72 hrs and measured after 72 hrs by serial dilution method; format: functional
# Aspergillus ochraceus [3] = assay: Fungicidal activity against Aspergillus ochraceus ATCC 12066 incubated for 72 hrs followed by serial sub-cultivation for 72 hrs and measured after 72 hrs by serial dilution method; format: functional
# Aspergillus fumigatus [4] = assay: Antifungal activity against Aspergillus fumigatus after 72 hrs by serial dilution method; format: functional
# Aspergillus versicolor [5] = assay: Fungicidal activity against Aspergillus versicolor ATCC 11730 incubated for 72 hrs followed by serial sub-cultivation for 72 hrs and measured after 72 hrs by serial dilution method; format: functional
# Aspergillus niger [6] = assay: Antifungal activity against Aspergillus niger ATCC 6275 after 72 hrs by serial dilution method; format: functional; conditions: ATCC 6275, 72 h
# Aspergillus fumigatus [7] = assay: Fungicidal activity against Aspergillus fumigatus incubated for 72 hrs followed by serial sub-cultivation for 72 hrs and measured after 72 hrs by serial dilution method; format: functional
# Aspergillus versicolor [8] = assay: Antifungal activity against Aspergillus versicolor ATCC 11730 after 72 hrs by serial dilution method; format: functional; conditions: ATCC 11730, 72 h
# Penicillium ochrochloron [9] = assay: Fungicidal activity against Penicillium ochrochloron ATCC 9112 incubated for 72 hrs followed by serial sub-cultivation for 72 hrs and measured after 72 hrs by serial dilution method; format: functional
# Aspergillus ochraceus [10] = assay: Antifungal activity against Aspergillus ochraceus ATCC 12066 after 72 hrs by serial dilution method; format: functional; conditions: ATCC 12066, 72 h
# Talaromyces funiculosus [11] = assay: Fungicidal activity against Penicillium funiculosum ATCC 36839 incubated for 72 hrs followed by serial sub-cultivation for 72 hrs and measured after 72 hrs by serial dilution method; format: functional
# Trichoderma viride [12] = assay: Fungicidal activity against Trichoderma viride IAM 5061 incubated for 72 hrs followed by serial sub-cultivation for 72 hrs and measured after 72 hrs by serial dilution method; format: functional
# Penicillium ochrochloron [13] = assay: Antifungal activity against Penicillium ochrochloron ATCC 9112 after 72 hrs by serial dilution method; format: functional; conditions: ATCC 9112, 72 h
# Candida albicans [14] = assay: Fungicidal activity against Candida albicans incubated for 72 hrs followed by serial sub-cultivation for 72 hrs and measured after 72 hrs by serial dilution method; format: functional
# Trichoderma viride [15] = assay: Antifungal activity against Trichoderma viride IAM 5061 after 72 hrs by serial dilution method; format: functional; conditions: IAM 5061, 72 h
# Candida albicans [16] = assay: Antifungal activity against Candida albicans after 72 hrs by serial dilution method; format: functional
# Listeria monocytogenes [17] = assay: Antibacterial activity against Listeria monocytogenes NCTC 7973 after 24 hrs by microdilution method; format: functional; conditions: NCTC 7973, 24 h
# Bacillus cereus [18] = assay: Antibacterial activity against Bacillus cereus after 24 hrs by microdilution method; format: functional
# Bacillus cereus [19] = assay: Bactericidal activity against Bacillus cereus incubated for 24 hrs followed by serial sub-cultivation and measured after 24 hrs by microdilution method; format: functional
# Staphylococcus aureus [20] = assay: Bactericidal activity against Staphylococcus aureus ATCC 6538 incubated for 24 hrs followed by serial sub-cultivation and measured after 24 hrs by microdilution method; format: functional
# Enterobacter cloacae [21] = assay: Bactericidal activity against Enterobacter cloacae incubated for 24 hrs followed by serial sub-cultivation and measured after 24 hrs by microdilution method; format: functional
# Micrococcus flavus [22] = assay: Antibacterial activity against Micrococcus flavus ATCC 10240 after 24 hrs by microdilution method; format: functional; conditions: ATCC 10240, 24 h
# Staphylococcus aureus [23] = assay: Antibacterial activity against Staphylococcus aureus ATCC 6538 after 24 hrs by microdilution method; format: functional; conditions: ATCC 6538, 24 h
# Listeria monocytogenes [24] = assay: Bactericidal activity against Listeria monocytogenes NCTC 7973 incubated for 24 hrs followed by serial sub-cultivation and measured after 24 hrs by microdilution method; format: functional
# Pseudomonas aeruginosa [25] = assay: Antibacterial activity against Pseudomonas aeruginosa ATCC 27853 after 24 hrs by microdilution method; format: functional; conditions: ATCC 27853, 24 h
# Escherichia coli [26] = assay: Bactericidal activity against Escherichia coli ATCC 35210 incubated for 24 hrs followed by serial sub-cultivation and measured after 24 hrs by microdilution method; format: functional
# Salmonella typhimurium [27] = assay: Antibacterial activity against Salmonella typhimurium ATCC 13311 after 24 hrs by microdilution method; format: functional, Salmonella enterica subsp. enterica serovar Typhimurium; conditions: Salmonella enterica, ATCC 13311, 24 h
# Pseudomonas aeruginosa [28] = assay: Bactericidal activity against Pseudomonas aeruginosa ATCC 27853 incubated for 24 hrs followed by serial sub-cultivation and measured after 24 hrs by microdilution method; format: functional
# Enterobacter cloacae [29] = assay: Antibacterial activity against Enterobacter cloacae after 24 hrs by microdilution method; format: functional
# Escherichia coli [30] = assay: Antibacterial activity against Escherichia coli ATCC 35210 after 24 hrs by microdilution method; format: functional; conditions: ATCC 35210, 24 h
# Micrococcus flavus [31] = assay: Bactericidal activity against Micrococcus flavus ATCC 10240 incubated for 24 hrs followed by serial sub-cultivation and measured after 24 hrs by microdilution method; format: functional
# Salmonella typhimurium [32] = assay: Bactericidal activity against Salmonella typhimurium ATCC 13311 incubated for 24 hrs followed by serial sub-cultivation and measured after 24 hrs by microdilution method; format: functional, Salmonella enterica subsp. enterica serovar Typhimurium
SMILES,MIC (Talaromyces funiculosus [1]) [µM],MFC99.5 (Aspergillus niger [2]) [×10⁻² umol/ml],MFC99.5 (Aspergillus ochraceus [3]) [×10⁻² umol/ml],MIC (Aspergillus fumigatus [4]) [µM],MFC99.5 (Aspergillus versicolor [5]) [×10⁻² umol/ml],MIC (Aspergillus niger [6]) [µM],MFC99.5 (Aspergillus fumigatus [7]) [×10⁻² umol/ml],MIC (Aspergillus versicolor [8]) [µM],MFC99.5 (Penicillium ochrochloron [9]) [×10⁻² umol/ml],MIC (Aspergillus ochraceus [10]) [µM],MFC99.5 (Talaromyces funiculosus [11]) [×10⁻² umol/ml],MFC99.5 (Trichoderma viride [12]) [×10⁻² umol/ml],MIC (Penicillium ochrochloron [13]) [µM],MFC99.5 (Candida albicans [14]) [×10⁻² umol/ml],MIC (Trichoderma viride [15]) [µM],MIC (Candida albicans [16]) [µM],MIC (Listeria monocytogenes [17]) [µM],MIC (Bacillus cereus [18]) [µM],MBC99.5 (Bacillus cereus [19]) [×10⁻² umol/ml],MBC99.5 (Staphylococcus aureus [20]) [×10⁻² umol/ml],other results
CC(=O)N1CCN(c2ccc(OCC3COC(Cn4ccnc4)(c4ccc(Cl)cc4Cl)O3)cc2)CC1 (stereo not drawn) [KETOCONAZOLE],380,95,38,380,95,380,95,380,285,280,95,285,1900,56,1900,380,,,,,
O=C(Cc1nsc2ccccc12)NN1C(=O)CSC1c1c(F)cccc1F (stereo not drawn),74,19.8,9.9,296,9.9,148,37,74,19.8,74,9.9,9.9,148,19.8,74,99,543,198,37,37,MBC99.5 (Enterobacter cloacae [21]): 37 ×10⁻² umol/ml; MIC (Micrococcus flavus [22]): 272 µM; MIC (Staphylococcus aureus [23]): 198 µM; MBC99.5 (Listeria monocytogenes [24]): 74 ×10⁻² umol/ml; MIC (Pseudomonas aeruginosa [25]): 272 µM; MBC99.5 (Escherichia coli [26]): 37 ×10⁻² umol/ml; MIC (Salmonella typhimurium [27]): 198 µM; MBC99.5 (Pseudomonas aeruginosa [28]): 37 ×10⁻² umol/ml; MIC (Enterobacter cloacae [29]): 198 µM; MIC (Escherichia coli [30]): 272 µM; MBC99.5 (Micrococcus flavus [31]): 37 ×10⁻² umol/ml; MBC99.5 (Salmonella typhimurium [32]): 37 ×10⁻² umol/ml
c1ccc(-c2ccc(C(c3ccccc3)n3ccnc3)cc2)cc1 (stereo not drawn) [BIFONAZOLE],640,64,80,480,64,480,64,320,80.5,480,80,80,640,64,640,320,,,,,
O=C(N/N=C/c1c(F)cccc1Cl)c1nsc2ccccc12,30,12,12,240,12,60,30,60,12,60,6,48,60,30,240,240,240,120,24,12,MBC99.5 (Enterobacter cloacae [21]): 12 ×10⁻² umol/ml; MIC (Micrococcus flavus [22]): 120 µM; MIC (Staphylococcus aureus [23]): 60 µM; MBC99.5 (Listeria monocytogenes [24]): 48 ×10⁻² umol/ml; MIC (Pseudomonas aeruginosa [25]): 240 µM; MBC99.5 (Escherichia coli [26]): 24 ×10⁻² umol/ml; MIC (Salmonella typhimurium [27]): 60 µM; MBC99.5 (Pseudomonas aeruginosa [28]): 48 ×10⁻² umol/ml; MIC (Enterobacter cloacae [29]): 60 µM; MIC (Escherichia coli [30]): 120 µM; MBC99.5 (Micrococcus flavus [31]): 24 ×10⁻² umol/ml; MBC99.5 (Salmonella typhimurium [32]): 12 ×10⁻² umol/ml
CN[C@@H]1[C@H](O[C@H]2[C@H](O[C@H]3[C@H](O)[C@@H](O)[C@H](N=C(N)N)[C@@H](O)[C@@H]3N=C(N)N)O[C@@H](C)[C@]2(O)C=O)O[C@@H](CO)[C@H](O)[C@H]1O [STREPTOMYCIN],,,,,,,,,,,,,,,,,258,43,8.6,34.4,MBC99.5 (Enterobacter cloacae [21]): 8.6 ×10⁻² umol/ml; MIC (Micrococcus flavus [22]): 86 µM; MIC (Staphylococcus aureus [23]): 172 µM; MBC99.5 (Listeria monocytogenes [24]): 51.6 ×10⁻² umol/ml; MIC (Pseudomonas aeruginosa [25]): 172 µM; MBC99.5 (Escherichia coli [26]): 34.4 ×10⁻² umol/ml; MIC (Salmonella typhimurium [27]): 172 µM; MBC99.5 (Pseudomonas aeruginosa [28]): 34.4 ×10⁻² umol/ml; MIC (Enterobacter cloacae [29]): 43 µM; MIC (Escherichia coli [30]): 172 µM; MBC99.5 (Micrococcus flavus [31]): 17.2 ×10⁻² umol/ml; MBC99.5 (Salmonella typhimurium [32]): 34.4 ×10⁻² umol/ml
CC1(C)S[C@@H]2[C@H](NC(=O)[C@H](N)c3ccccc3)C(=O)N2[C@H]1C(=O)O [AMPICILLIN],,,,,,,,,,,,,,,,,372,248,37.2,37.2,MBC99.5 (Enterobacter cloacae [21]): 37.2 ×10⁻² umol/ml; MIC (Micrococcus flavus [22]): 248 µM; MIC (Staphylococcus aureus [23]): 248 µM; MBC99.5 (Listeria monocytogenes [24]): 74.4 ×10⁻² umol/ml; MIC (Pseudomonas aeruginosa [25]): 744 µM; MBC99.5 (Escherichia coli [26]): 49.2 ×10⁻² umol/ml; MIC (Salmonella typhimurium [27]): 248 µM; MBC99.5 (Pseudomonas aeruginosa [28]): 124 ×10⁻² umol/ml; MIC (Enterobacter cloacae [29]): 248 µM; MIC (Escherichia coli [30]): 372 µM; MBC99.5 (Micrococcus flavus [31]): 37.2 ×10⁻² umol/ml; MBC99.5 (Salmonella typhimurium [32]): 49.2 ×10⁻² umol/ml
